{"source": "patent US20130266636A1", "about": "“METHODS FOR BLOCKING CELL PROLIFERATION AND TREATING DISEASES AND CONDITIONS RESPONSIVE TO CELL GROWTH INHIBITION” (THE REGENTS OF THE UNIVERSITY OF CALIFORNIA, priority 2010, published 2013)", "key": {"[1]": {"target": "RAF dimerization (BRAF and CRAF) (Homo sapiens, UniProt P04049)", "sequence (P04049 whole entry)": "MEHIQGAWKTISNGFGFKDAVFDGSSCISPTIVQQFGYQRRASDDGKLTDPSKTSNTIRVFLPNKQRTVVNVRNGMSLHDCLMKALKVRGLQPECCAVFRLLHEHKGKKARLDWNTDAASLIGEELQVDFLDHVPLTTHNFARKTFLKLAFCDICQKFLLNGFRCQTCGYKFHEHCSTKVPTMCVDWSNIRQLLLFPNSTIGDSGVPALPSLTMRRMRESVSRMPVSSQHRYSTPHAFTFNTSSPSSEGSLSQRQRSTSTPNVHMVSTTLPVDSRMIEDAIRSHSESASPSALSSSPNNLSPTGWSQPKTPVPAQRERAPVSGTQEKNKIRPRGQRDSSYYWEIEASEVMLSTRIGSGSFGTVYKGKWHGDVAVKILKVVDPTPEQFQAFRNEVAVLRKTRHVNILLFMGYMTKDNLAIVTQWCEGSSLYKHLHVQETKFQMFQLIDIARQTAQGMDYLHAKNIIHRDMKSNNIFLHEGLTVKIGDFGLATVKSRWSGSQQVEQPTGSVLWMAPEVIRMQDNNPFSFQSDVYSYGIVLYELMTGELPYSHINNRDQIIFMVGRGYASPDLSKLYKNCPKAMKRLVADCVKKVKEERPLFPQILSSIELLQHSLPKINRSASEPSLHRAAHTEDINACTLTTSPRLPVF", "test": "RAF dimerization, immunoblot of BRAF and CRAF immunoprecipitates from A549 cells", "format": "cell-based", "description": "FIG. 11 illustrates immunoblot analysis of BRAF and CRAF immunoprecipitates from A549 cells treated with PD0325901, Sorafenib, L-779450, PLX4720, KG5 or KG1.\nImmunoprecipitation and Immunoblot Analysis Cells were lysed in either NP40 lysis buffer (150 mM NaCl, 50 mM Tris Base pH 7.4, 1% NP40) or RIPA buffer (50 mM Tris pH 7.4, 100 mM NaCl, 0.1% SDS) supplemented with complete protease inhibitor mixture (Roche), 50 mM NaF and 1 mM Na3VO4 and centrifuged at 13,000×g for 10 min at 4° C. Protein concentration was determined by BCA assay. […] of protein were immunoprecipitated with […] of anti-Flag (Sigma), anti-CRAF (BD Pharmingen), anti-Plk1 (Abcam), anti-γ-Tubulin (sigma) or anti-cenpF (Santa Cruz) antibodies overnight at 4° C. followed by capture with 25 μl of protein A/G (Pierce). Beads were washed five times, eluted in boiling Laemmli buffer, resolved on 10% SDS-PAGE and immunoblotting was performed with anti-Plk1 antibody (Abcam), anti-CRAF antibody (BD Pharmingen), anti-Aurora A (Abcam), anti-phospho-S338 CRAF (Cell Signaling), anti-phospho-T210 Plk1 or anti-phospho-T288 Aurora A (Cell signaling) diluted 1:1000. For immunoblot analysis, […] of protein was boiled in […]"}, "[2]": {"system": "XPA-1-RFP pancreatic tumor xenografts", "test": "Orthotopic XPA-1-RFP pancreatic tumor xenograft in Nestin-GFP mice", "format": "in vivo", "description": "FIG. 16 and FIG. 17 illustrate data showing that KG5 inhibits pancreatic tumor growth and reduces tumor vascular density, as described in Murphy (2010) Proc. Natl. Acad. Sci. USA, Mar. 2, 2010; vol. 107(9): 4299-4304. FIGS. 16A and 16B, and FIGS. 17A and 17B: Real-time fluorescent imaging of XPA-1-RFP pancreatic tumor xenografts in the pancreas of Nestin-GFP mice (n=5/group) treated with either vehicle (FIG. 16A, 17A) or KG5 (FIG. 16B, 17B) (50 mg/kg, i.p., bid). Drug treatments were started 3 days after surgical orthotopic implantation (SOT) of XPA-1-RFP tumors, and tumor progression was monitored every 3 days by whole-animal imaging (Scale bar, 10 mm). FIG. 17(C) graphically illustrates a plot of tumor surface area over time for the vehicle- and KG5-treated groups, Tumor surface area was calculated by adding the total pixels of both the ventral and lateral images of the tumor. *P=0.034. FIG. 17(D) graphically illustrates average body weight of the mice measured each day of whole-animal imaging described in A and B. FIG. 16(C) graphically illustrates total weights of resected primary tumors on day 15 post-SOT. *P=0.022.\nAnimals were systemically treated with either vehicle or KG5 (50 mg/kg, bid) beginning 3 days after surgical orthotopic implantation (SOI) of a tumor fragment. Tumor growth was monitored noninvasively by whole-body imaging. […] Animals treated with KG5 produced an average tumor weight of 26.7 mg compared to 74.1 mg for vehicle-treated animals (FIG. 16C). At this time, GFP-labeled blood vessels were imaged and tumor-associated blood vessel density was quantified by measuring the ratio of total blood vessel length to tumor volume. […] The mean vessel length/tumor volume was 2.5 mm/mm^3 compared to 0.2 mm/mm^3 for vehicle and KG5, respectively.\nFIG. 18 further illustrates data from the studies of FIG. 16 and FIG. 17: FIG. 18(A) and FIG. 18(B) illustrate representative fluorescent images of endothelial GFP expression (GFP expression driven by the Nestin promoter) within the XPA-1-RFP tumors after resection. Images were taken 15 days post-SOI (Scale bar, 200 μm); FIG. 18(C) illustrates a plot of tumor vessel density from images acquired as in E, Blood vessels imaged as in E were converted to length (mm) and normalized to tumor volume (mm^3). *P=0.01."}}}
{"smiles": "CSc1nc(N)cc(Oc2ccc(-c3nnc(Nc4cccc(C(F)(F)F)c4)[nH]3)cc2)n1", "note": "[KG5]", "values": [{"measurement": "RAF dimerization", "setting": "[1]", "value": "prevents RAF dimerization"}, {"measurement": "body weight", "setting": "[2]; 50 mg/kg bid", "value": "no weight loss"}, {"measurement": "signs of lethargy", "setting": "[2]; 50 mg/kg bid", "value": "did not demonstrate any signs of lethargy"}, {"measurement": "tumor growth by whole-body imaging", "setting": "[2]; 50 mg/kg bid, 12 days post-SOI, compared to vehicle", "value": "completely suppressed"}, {"measurement": "average tumor weight", "setting": "[2]; 50 mg/kg i.p. bid from 3 days after SOI, resected primary tumors day 15 post-SOI, vehicle 74.1 mg", "value": 26.7, "unit": "mg"}, {"measurement": "mean vessel length/tumor volume", "setting": "[2]; 50 mg/kg i.p. bid, 15 days post-SOI, vehicle 2.5 mm/mm^3", "value": 0.2, "unit": "mm/mm^3"}]}
